Source: patent publication US11285156B2, “Substituted piperazines as KRAS G12C inhibitors” (Amgen Inc., priority 2018, dated 2022)
Where two headings read alike, the source gives them in different places.

Key:
[1] = tested on: Phosphorylation of ERK1/2 in A549 cells; assay: Phospho-ERK1/2 MSD assay in A549 cells; type: cell-based; settings: read-out: p-ERK IC50 (2 h, A549; μM)
Experimental: (§1) Phospho-ERK1/2 MSD Assay:
(§2) MIA PaCa-2 (ATCC® CRL-1420™) and A549 (ATCC® CCL-185™) cells were cultured in RPMI 1640 Medium (ThermoFisher Scientific 11875093) containing 10% fetal bovine serum (ThermoFisher Scientific 16000044) and 1× penicillin-streptomycin-glutamine (ThermoFisher Scientific 10378016). Sixteen hours prior to compound treatment, MIA PaCa-2 or A549 cells were seeded in 96-well cell culture plates at a density of 25,000 cells/well and incubated at 37° C., 5% CO2. A compound dose-response titration was diluted in growth media, added to appropriate wells of a cell culture plate, and then incubated at 37° C., 5% CO2 for 2 or 4 hours (see Table 15). Following compound treatment, cells were stimulated with 10 ng/mL EGF (Roche 11376454001) for 10 min, washed with ice-cold Dulbecco's phosphate-buffered saline, no Ca2+ or Mg2+ (ThermoFisher Scientific 14190144), and then lysed in RIPA buffer (50 mM Tris-HCl pH 7.5, 1% Igepal, 0.5% sodium deoxycholate, 150 mM NaCl. and 0.5% sodium dodecyl sulfate) containing protease inhibitors (Roche 4693132001) and phosphatase inhibitors (Roche 4906837001). Phosphorylation of ERK1/2 in compound-treated lysates was assayed using Phospho-ERK1/2 Whole Cell Lysate kits (Meso Scale Discovery K151DWD) according to the manufacturer's protocol.

[2] = tested on: Phosphorylation of ERK1/2 in MIA PaCa-2 cells; assay: Phospho-ERK1/2 MSD assay in MIA PaCa-2 cells; type: cell-based; settings: read-out: p-ERK IC50 (2 h, MiaPaCa-2; μM)
Experimental: as §1
as §2, with “Sixteen” for “MIA PaCa-2 (ATCC® CRL-1420™) and A549 (ATCC® CCL-185™) cells were cultured in RPMI 1640 Medium (ThermoFisher Scientific 11875093) containing 10% fetal bovine serum (ThermoFisher Scientific 16000044) and 1× penicillin-streptomycin-glutamine (ThermoFisher Scientific 10378016). Sixteen”

[3] = Homo sapiens, A549, 2 h, 2 h compound treatment, A549 cells, EGF stimulated
[4] = Homo sapiens, MIA PaCa-2, 2 h, 2 h compound treatment, MIA PaCa-2 cells, EGF stimulated
[5] = 2 h compound treatment, MIA PaCa-2 cells, EGF stimulated
[6] = 2 h compound treatment, A549 cells, EGF stimulated

| Compound | IC50 [1, 3] [µM] | IC50 [2, 4] [µM] | IC50 [2, 5] [µM] | other results |
| --- | --- | --- | --- | --- |
| C=CC(=O)N1C[C@H](C)N(c2nc(=O)n(-c3c(C)ccnc3C(C)C)c3nc(-c4cscc4C)c(Cl)cc23)C[C@H]1C (atropisomer, axis not shown; (M)) [Example 92-5, (M)-6-Chloro-4-[(2S,5R)-2,5-dimethyl-4-prop-2-enoyl-piperazin-1-yl]-1-(2-isopropyl-4-methyl-3-pyridyl)-7-(4-methyl-3-thienyl)pyrido[2,3-d]pyrimidin-2-one] | > 7.5 | 0.119 | – | – |
| C=CC(=O)N1C[C@H](C)N(c2nc(=O)n(-c3c(C)ccnc3C(C)C)c3nc(C4=CCCCC4)c(Cl)cc23)C[C@H]1C (atropisomer, axis not shown; (M)) [Example 92-6, (M)-6-Chloro-7-(cyclohexen-1-yl)-4-[(2S,5R)-2,5-dimethyl-4-prop-2-enoyl-piperazin-1-yl]-1-(2-isopropyl-4-methyl-3-pyridyl)pyrido [2,3-d]pyrimidin-2-one] | > 7.5 | 0.237 | – | – |
| C=CC(=O)N1C[C@H](C)N(c2nc(=O)n(-c3c(C)ccnc3C(C)C)c3nc(-c4cc(C)sc4C)c(Cl)cc23)C[C@H]1C (atropisomer, axis not shown; (M)) [Example 92-7, (M)-6-Chloro-4-[(2S,5R)-2,5-dimethyl-4-prop-2-enoyl-piperazin-1-yl]-7-(2,5-dimethyl-3-thienyl)-1-(2-isopropyl-4-methyl-3-pyridyl)pyrido [2,3-d]pyrimidin-2-one] | > 7.5 | 0.259 | – | – |
| C=CC(=O)N1C[C@H](C)N(c2nc(=O)n(-c3c(C)ccnc3C(C)C)c3nc(-c4cc(F)c(F)c(F)c4N)c(Cl)cc23)C[C@H]1C (atropisomer, axis not shown; (M)) [Example 92-38, (M)-7-(2-Amino-3,4,5-trifluoro-phenyl)-6-chloro-4-[(2S,5R)-2,5-dimethyl-4-prop-2-enoyl-piperazin-1-yl]-1-(2-isopropyl-4-methyl-3-pyridyl)pyrido [2,3-d]pyrimidin-2-one] | > 7.5 | 0.042 | – | – |
| C=CC(=O)N1C[C@H](C)N(c2nc(=O)n(-c3c(C)ccnc3C(C)C)c3nc(-c4ccccc4CO)c(F)cc23)C[C@H]1C (atropisomer, axis not shown; (M)) [Example 94-2, (M)-4-[(2S,5R)-2,5-dimethyl-4-prop-2-enoyl-piperazin-1-yl]-6-fluoro-7-[2-(hydroxymethyl)phenyl]-1-(2-isopropyl-4-methyl-3-pyridyl)pyrido [2,3-d]pyrimidin-2-one] | – | – | – | IC50 ([1]; Homo sapiens, A549, 2 h): > 7.5 µM; IC50 ([2]; Homo sapiens, MIA PaCa-2, 2 h): 0.204 µM |
| C=CC(=O)N1C[C@H](C)N(c2nc(=O)n(-c3c(C)ccnc3C(C)C)c3nc(-c4c(F)cccc4[S+](C)[O-])c(Cl)cc23)C[C@H]1C (atropisomer, axis not shown; (M)) [Example 211-2, (M)-4-((2S,5R)-4-Acryloyl-2,5-dimethylpiperazin-1-yl)-6-chloro-7-(2-fluoro-6-(methylsulfinyl)phenyl)-1-(2-isopropyl-4-methylpyridin-3-yl)pyrido[2,3-d]pyrimidin-2(1H)-one] | – | – | 0.106 | IC50 [1, 6]: > 7.5 µM |
| C=CC(=O)N1C[C@H](C)N(c2nc(=O)n(-c3c(C)ccnc3C(C)C)c3nc(-c4c(F)cccc4[S+](C)[O-])c(Cl)cc23)C[C@H]1C (atropisomer, axis not shown; (M)) [Example 211-3, (M)-4-((2S,5R)-4-Acryloyl-2,5-dimethylpiperazin-1-yl)-6-chloro-7-(2-fluoro-6-(methylsulfinyl)phenyl)-1-(2-isopropyl-4-methylpyridin-3-yl)pyrido[2,3-d]pyrimidin-2(1H)-one] | – | – | 0.253 | IC50 [1, 6]: > 7.5 µM |
| C=CC(=O)N1C[C@H](C)N(c2nc(=O)n(-c3c(C)ccnc3C(C)C)c3nc(-c4ccccc4[S+](C)[O-])c(Cl)cc23)C[C@H]1C (atropisomer, axis not shown; (M)) [Example 212-1, (M)-4-((2S,5R)-4-Acryloyl-2,5-dimethylpiperazin-1-yl)-6-chloro-1-(2-isopropyl-4-methylpyridin-3-yl)-7-(2-(methylsulfinyl)phenyl)pyrido[2,3-d]pyrimidin-2(1H)-one] | > 7.5 | – | 0.705 | – |
| C=CC(=O)N1C[C@H](C)N(c2nc(=O)n(-c3c(C)ccnc3C(C)C)c3nc(-c4ccccc4[S+](C)[O-])c(Cl)cc23)C[C@H]1C (atropisomer, axis not shown; (M)) [Example 212-2, (M)-4-((2S,5R)-4-Acryloyl-2,5-dimethylpiperazin-1-yl)-6-chloro-1-(2-isopropyl-4-methylpyridin-3-yl)-7-(2-(methylsulfinyl)phenyl)pyrido[2,3-d]pyrimidin-2(1H)-one] | – | – | 0.237 | IC50 [1, 6]: > 7.5 µM |
| C=CC(=O)N1C[C@H](C)N(c2nc(=O)n(-c3c(C)ccnc3C(C)C)c3nc(-c4c(F)cccc4S(C)(=O)=O)c(Cl)cc23)C[C@H]1C (atropisomer, axis not shown; (M)) [Example 214, (M)-4-((2S,5R)-4-Acryloyl-2,5-dimethylpiperazin-1-yl)-6-chloro-7-(2-fluoro-6-(methylsulfonyl)phenyl)-1-(2-isopropyl-4-methylpyridin-3-yl)pyrido[2,3-d]pyrimidin-2(1H)-one] | – | – | 0.025 | IC50 [1, 6]: > 7.5 µM |
| C=CC(=O)N1C[C@H](C)N(c2nc(=O)n(-c3c(C)ccnc3C(C)C)c3nc(-c4c(F)cccc4S(C)(=O)=O)c(Cl)cc23)C[C@H]1C (atropisomer, axis not shown; (M)) [Example 214-1, (M)-4-((2S,5R)-4-Acryloyl-2,5-dimethylpiperazin-1-yl)-6-chloro-7-(2-fluoro-6-(methylsulfonyl)phenyl)-1-(2-isopropyl-4-methylpyridin-3-yl)pyrido[2,3-d]pyrimidin-2(1H)-one] | > 7.5 | 0.03 | – | – |
| C=CC(=O)N1C[C@H](C)N(c2nc(=O)n(-c3c(C)cncc3C(C)C)c3nc(-c4ccccc4F)c(Cl)cc23)C[C@H]1C (single isomer, unassigned) [Example 100-8] | > 7.5 | 0.042 | – | – |
| C=CC(=O)N1C[C@H](C)N(C2=NC(=O)CN(CC(C)(C)C)c3nc(-c4ccccc4F)c(Cl)cc32)C[C@H]1C [Example 217, 5-((2S,5R)-4-Acryloyl-2,5-dimethylpiperazin-1-yl)-7-chloro-8-(2-fluorophenyl)-1-neopentyl-1,2-dihydro-3H-pyrido[2,3-e][1,4]diazepin-3-one] | – | – | – | IC50 ([1]; Homo sapiens, A549, 2 h): > 7.5 µM |

Continued, in another order:

| IC50 [1, 3] [µM] | IC50 [2, 4] [µM] | Compound | IC50 [2, 5] [µM] | other results |
| --- | --- | --- | --- | --- |
| > 7.5 | – | C=CC(=O)N1C[C@H](C)N(c2nc(=O)n(-c3c(C)ccnc3C(C)C)c3nc(-c4c(F)cccc4[S+](C)[O-])c(Cl)cc23)C[C@H]1C (atropisomer, axis not shown; (M)) [Example 211-1, (M)-4-((2S,5R)-4-Acryloyl-2,5-dimethylpiperazin-1-yl)-6-chloro-7-(2-fluoro-6-(methylsulfinyl)phenyl)-1-(2-isopropyl-4-methylpyridin-3-yl)pyrido[2,3-d]pyrimidin-2(1H)-one] | 0.128 | – |
| > 7.5 | 0.659 | C=CC(=O)N1C[C@H](C)N(c2nc(=O)n(-c3c(C)ccnc3C(C)C)c3nc(-c4cc(S(C)(=O)=O)ccc4F)c(Cl)cc23)C[C@H]1C (atropisomer, axis not shown; (M)) [Example 223, (M)-4-((2S,5R)-4-Acryloyl-2,5-dimethylpiperazin-1-yl)-6-chloro-7-(2-fluoro-5-(methylsulfonyl)phenyl)-1-(2-isopropyl-4-methylpyridin-3-yl)pyrido[2,3-d]pyrimidin-2(1H)-one] | – | – |
| > 7.5 | 0.062 | C=CC(=O)N1C[C@H](C)N(c2nc(=O)n(-c3c(C(C)C)ccnc3C(C)C)c3nc(-c4ccccc4Cl)c(Cl)cc23)C[C@H]1C (single isomer, unassigned) [Example 124-6] | – | – |
| > 7.5 | – | C=CC(=O)N1C[C@H](C)N(c2nc(=O)n(-c3c(C(C)C)cnc(C)c3C)c3nc(-c4ccccc4F)c(Cl)cc23)C[C@H]1C [Example 179, 4-((2S,5R)-4-Acryloyl-2,5-dimethylpiperazin-1-yl)-6-chloro-7-(2-fluorophenyl)-1-(5-isopropyl-2,3-dimethylpyridin-4-yl)pyrido[2,3-d]pyrimidin-2(1H)-one] | – | – |
